The source of these data is patent US20200079766A1, “MONOCYCLIC OGA INHIBITOR COMPOUNDS” (Janssen Pharmaceutica NV, priority 2016, published 2020).

The subject of test [1] is OGA in HEK293 cells inducible for P301L mutant human Tau (isoform 2N4R). Nature of the test: OGA cellular assay: immunocytochemical detection of O-GlcNAcylated proteins (CTD110.6 antibody) after 6 h incubation. The class given is cell-based. As to conditions: for Emax / EC50: Homo sapiens, HEK293, 6 h; for Emax / Cellular Emax (%): maximum = Thiamet G 200 uM; for EC50: read-out: Cellular hOGA, pEC50 (converted). The procedure:
HEK293 cells inducible for P301L mutant human Tau (isoform 2N4R) were established at Janssen. Thiamet-G was used for both plate validation (high control) and as reference compound (reference EC50 assay validation). OGA inhibition is evaluated through the immunocytochemical (ICC) detection of O-GlcNAcylated proteins by the use of a monoclonal antibody (CTD110.6; Cell Signaling, #9875) detecting O-GlcNAcylated residues as previoulsy described (Dorfmueller et al. 2010 Chemistry & biology, 17:1250). Inhibition of OGA will result in an increase of O-GlcNAcylated protein levels resulting in an increased signal in the experiment. Cell nuclei are stained with Hoechst to give a cell culture quality control and a rough estimate of immediate compounds toxicity, if any. ICC pictures are imaged with a Perkin Elmer Opera Phenix plate microscope and quantified with the provided software Perkin Elmer Harmony 4.1.
Cells were propagated in DMEM high Glucose (Sigma, # D5796) following standard procedures. 2 days before the cell assay cells are split, counted and seeded in Poly-D-Lysine (PDL) coated 96-wells (Greiner, #655946) plate at a cell density of 12,000 cells per cm^2 (4,000 cells per well) in 100 μl of Assay Medium (Low Glucose medium is used to reduce basal levels of GlcNAcylation) (Park et al. 2014 The Journal of biological chemistry 289:13519). At the day of compound test medium from assay plates was removed and replenished with 90 μl of fresh Assay Medium. 10 μl of compounds at a 10 fold final concentration were added to the wells. Plates were centrifuged shortly before incubation in the cell incubator for 6 hours. DMSO concentration was set to 0.2%. Medium is discarded by applying vacuum. For staining of cells medium was removed and cells washed once with 100 μl D-PBS (Sigma, # D8537). From next step onwards unless other stated assay volume was always 50 μl and incubation was performed without agitation and at room temperature. Cells were fixed in 50 μl of a 4% paraformaldehyde (PFA, Alpha aesar, #043368) PBS solution for 15 minutes at room temperature. […] Before analysis samples were washed 2 times manually for 5 minutes in ICC base buffer.
Imaging is performed using Perkin Elmer Phenix Opera using a water 20× objective and recording 9 fields per well. Intensity readout at 488 nm is used as a measure of O-GlcNAcylation level of total proteins in wells. To assess potential toxicity of compounds nuclei were counted using the Hoechst staining. IC50-values are calculated using parametric non-linear regression model fitting. As a maximum inhibition Thiamet G at a 200 uM concentration is present on each plate. In addition, a concentration response of Thiamet G is calculated on each plate.

The target of test [2] is T1, recombinant human Meningioma Expressed Antigen 5 (MGEA5), also referred to as O-GlcNAcase (OGA) (Homo sapiens, UniProt O60502).
T1 construct: Full length OGA enzyme was purchased at OriGene (cat # TP322411); purchased OriGene TP322411
T1 sequence (O60502 1-916): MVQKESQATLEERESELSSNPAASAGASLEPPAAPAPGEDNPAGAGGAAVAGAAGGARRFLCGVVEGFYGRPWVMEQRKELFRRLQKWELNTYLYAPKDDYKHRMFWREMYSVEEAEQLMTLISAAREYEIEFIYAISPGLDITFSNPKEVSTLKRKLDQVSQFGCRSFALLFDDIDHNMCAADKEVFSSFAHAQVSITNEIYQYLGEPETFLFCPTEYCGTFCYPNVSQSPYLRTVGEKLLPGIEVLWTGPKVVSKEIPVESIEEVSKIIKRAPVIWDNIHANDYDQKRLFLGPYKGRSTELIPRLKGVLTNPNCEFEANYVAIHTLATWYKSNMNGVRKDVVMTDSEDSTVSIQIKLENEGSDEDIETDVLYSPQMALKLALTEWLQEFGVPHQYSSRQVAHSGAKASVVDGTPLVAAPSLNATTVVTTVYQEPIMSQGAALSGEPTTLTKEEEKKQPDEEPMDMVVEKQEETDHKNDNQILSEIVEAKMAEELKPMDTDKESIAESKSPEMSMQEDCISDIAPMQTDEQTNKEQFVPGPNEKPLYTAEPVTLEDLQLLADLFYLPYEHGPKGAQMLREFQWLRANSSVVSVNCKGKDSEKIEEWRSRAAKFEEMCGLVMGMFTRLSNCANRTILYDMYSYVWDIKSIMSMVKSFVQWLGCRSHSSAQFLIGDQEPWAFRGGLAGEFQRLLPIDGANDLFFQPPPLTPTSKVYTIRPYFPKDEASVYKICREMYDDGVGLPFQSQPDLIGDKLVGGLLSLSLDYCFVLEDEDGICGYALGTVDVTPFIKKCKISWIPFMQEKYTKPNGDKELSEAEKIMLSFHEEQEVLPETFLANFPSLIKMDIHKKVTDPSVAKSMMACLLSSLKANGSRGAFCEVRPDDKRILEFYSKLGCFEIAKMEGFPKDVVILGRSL
Nature of the test: OGA biochemical assay: inhibition of FM-GlcNAc hydrolysis, fluorescence; protocol A (10 nM OGA, 1 h) or protocol B (2 nM OGA, 6 h). As to conditions: Enzymatic protocol B (2 nM OGA, 6 h); for IC50: read-out: Enzymatic hOGA, pIC50 (converted). The text has this:
The assay is based on the inhibition of the hydrolysis of fluorescein mono-3-D-N-Acetyl-Glucosamine (FM-GlcNAc) (Mariappa et al. 2015, Biochem J 470:255) by the recombinant human Meningioma Expressed Antigen 5 (MGEA5), also referred to as O-GlcNAcase (OGA). The hydrolysis FM-GlcNAc (Marker Gene technologies, cat # M1485) results in the formation of ß-D-N-glucosamineacetate and fluorescein. The fluorescence of the latter can be measured at excitation wavelength 485 nm and emission wavelength 538 nm. An increase in enzyme activity results in an increase in fluorescence signal. Full length OGA enzyme was purchased at OriGene (cat # TP322411). The enzyme was stored in 25 mM Tris.HCl, pH 7.3, 100 mM glycine, 10% glycerol at −20° C. Thiamet G and GlcNAcStatin were tested as reference compounds (Yuzwa et al. 2008 Nature Chemical Biology 4:483; Yuzwa et al. 2012 Nature Chemical Biology 8:393). The assay was performed in 200 mM Citrate/phosphate buffer supplemented with 0.005% Tween-20. 35.6 g Na2HPO42H2O (Sigma, # C0759) were dissolved in 1 L water to obtain a 200 mM solution. 19.2 g citric acid (Merck, #1.06580) was dissolved in 1 L water to obtain a 100 mM solution. pH of the sodiumphosphate solution was adjusted with the citric acid solution to 7.2. The buffer to stop the reaction consists of a 500 mM Carbonate buffer, pH 11.0. 734 mg
FM-GlcNAc were dissolved in 5.48 mL DMSO to obtain a 250 mM solution and was stored at −20° C. OGA was used at a 10 nM (protocol A) or 2 nM (protocol B) concentration and FM-GlcNAc at a 100 uM final concentration. Dilutions were prepared in assay buffer.
50 nl of a compound dissolved in DMSO was dispensed on Black Proxiplate™ 384 Plus Assay plates (Perkin Elmer, #6008269) and 3 μl fl-OGA enzyme mix added subsequently. Plates were pre-incubated for 60 min at room temperature and then 2 μl FM-GlcNAc substrate mix added. […] Plates were briefly centrifuged for 1 min at 1000 rpm and incubate at room temperature for 1 h (10 nM OGA, protocol A) or 6 h (2 nM OGA, protocol B). To stop the reaction 5 μl STOP buffer were added and plates centrifuge again 1 min at 1000 rpm. Fluorescence was quantified in the Thermo Scientific Fluoroskan Ascent or the PerkinElmer EnVision with excitation wavelength 485 nm and emission wavelength 538 nm.
For analysis a best-fit curve is fitted by a minimum sum of squares method. From this an IC50 value and Hill coefficient was obtained. High control (no inhibitor) and low control (saturating concentrations of standard inhibitor) were used to define the minimum and maximum values.

For the compound `Cc1cc(CC2CCCN(C(C)c3ccc4scnc4c3)C2)cc(C)n1` (racemic) [compound 148], in test [1], the Emax (commonly the maximal effect, on the per cent scale that the assay sets) is 105% and the EC50 was 0.0562 µM. For the same compound, in test [2], the Emax is 102% and the IC50 was 0.00631 µM.

In the case of `CC(=O)Nc1ncc(CN2CCCC(Nc3ccnc(C)c3)C2)s1` (racemic) [compound 155], in test [1], the Emax amounted to 84.2% and the EC50 was 0.0148 µM. In test [2], the Emax is 101% and the IC50 is 0.00603 µM.

Turning to `Cc1cc(NC2CCCN(C(C)c3ccc4nccnc4c3)C2)cc(C)n1` (racemic) [compound 156], in test [1], the Emax stood at 89% and the EC50 is 0.468 µM. In test [2], the Emax was 97.4% and the IC50 was 0.0437 µM.

Turning to `CC(=O)Nc1ncc(CN2CCC[C@H](Cc3cc(C)nc(C)n3)C2)s1` (single isomer, unassigned) [compound 25], in test [1], the Emax came out at 97.8% and the EC50 is 0.00977 µM. Also, in test [2], the Emax turned out to be 101% and the IC50 was 0.00182 µM.

As to `CC(=O)Nc1ncc(CN2CCC[C@@H](Cc3cc(C)nc(C)n3)C2)s1` (single isomer, unassigned) [compound 26], in test [1], the Emax turned out to be 72.3% and the EC50 was 0.525 µM. Moreover, in test [2], the Emax came to 99.5% and the IC50 is 0.0269 µM.

Turning to `Cc1cc(CC2CCCN(C(C)c3ccc4sc(C)nc4c3)C2)cc(C)n1` (single isomer, unassigned) [compound 118], in test [1], the “Cellular hOGA; pEC50” value is 6.24 and the “Cellular Emax (%)” value was 62.2%. In addition, in test [2], the Emax came to 100% and the IC50 was 0.0468 µM.

On to `Cc1cc(CC2CCCN(C(C)c3ccc4sc(C)nc4c3)C2)cc(C)n1` (single isomer, unassigned) [compound 119], for which, in test [1], the “Cellular hOGA; pEC50” value was 7.38 and the “Cellular Emax (%)” value came to 107.3%. For the same compound, in test [2], the “Enzymatic Emax (%)” value worked out at 103.7% and the IC50 is 0.00288 µM.

Consider `CC(=O)Nc1ncc(CN2CCCC(c3cc(C)nc(C)c3)C2)s1` (single isomer, unassigned) [compound 130], for which, in test [1], the Emax was found to be 99% and the EC50 is 0.0132 µM. In addition, in test [2], the Emax came out at 103% and the IC50 is 0.00912 µM.

For `CC(=O)Nc1ncc(C(C)N2CCCC(COc3cc(C)nc(C)c3)C2)s1` (single isomer, unassigned) [compound 134], in test [1], the Emax was 79.5% and the EC50 is 0.0525 µM. Besides, in test [2], the Emax stood at 100% and the IC50 was 0.0282 µM.

Regarding `CC(=O)Nc1ncc([C@@H](C)N2CCC[C@@H](COc3cc(C)nc(C)c3)C2)s1` (single isomer, unassigned) [compound 135], in test [1], the “Cellular hOGA; pEC50” value was found to be 6.3 and the “Cellular Emax (%)” value was 67.9%. In addition, in test [2], the Emax was 104% and the IC50 is 0.178 µM.

Regarding `CC(=O)Nc1ncc([C@@H](C)N2CCC[C@H](COc3cc(C)nc(C)c3)C2)s1` (single isomer, unassigned) [compound 136], in test [1], the Emax stood at 70.6% and the EC50 was 0.479 µM. For the same compound, in test [2], the Emax came to 100% and the IC50 is 0.0955 µM.

As for `CC(=O)Nc1ncc([C@@H](C)N2CCC[C@@H](COc3cc(C)nc(C)c3)C2)s1` (single isomer, unassigned) [compound 137], in test [1], the “Cellular hOGA; pEC50” value amounted to 8.83 and the “Cellular Emax (%)” value was 94.7%. In test [2], the “Enzymatic Emax (%)” value is listed as 102.2% and the IC50 was 0.000955 µM.

Take `CC(=O)Nc1ncc(CN2CCCC(c3ccnc(C)c3)C2)s1` (centres unmarked) [compound 6]: in test [1], the Emax stood at 98.7% and the EC50 was 0.0275 µM. Further, in test [2], the Emax was 101% and the IC50 is 0.0275 µM.

Regarding `CC(=O)Nc1ncc(CN2CCCC(c3cc(C)nc(C)c3)C2)s1` (centres unmarked) [compound 7], in test [1], the Emax came to 98.9% and the EC50 was 0.00891 µM. In test [2], the Emax was 99.3% and the IC50 was 0.0178 µM.

Take `CC(=O)Nc1ncc(CN2CCC[C@H](Nc3cc(C)nc(C)c3)C2)s1` [compound 9]: in test [1], the Emax came to 102% and the EC50 was 0.0479 µM. Besides, in test [2], the Emax came out at 103% and the IC50 is 0.00372 µM.

For `Cc1cc(N[C@@H]2CCCN(C(C)c3ccc4nccnc4c3)C2)cc(C)n1` (some centres unmarked) [compound 11], in test [1], the Emax was found to be 65.2% and the EC50 is 4.27 µM. In test [2], the Emax worked out at 101% and the IC50 was 0.0257 µM.

With `CC(=O)Nc1ncc(CN2CCCC(Oc3cc(C)cc(C)c3)C2)s1` (centres unmarked) [compound 13, reference compound], in test [1], the maximal effect (Emax) stood at 92.1% and the EC50 is 0.316 µM. Moreover, in test [2], the Emax stood at 98.7% and the IC50 was 0.0933 µM.
